Results reported in ChEMBL document CHEMBL5726611, “Factor XIA inhibitors” (2019).

target: Coagulation factor XI (Homo sapiens, UniProt P03951); assay: Factor XIa Assay: The effectiveness of a compound of the present invention as an inhibitor of Coagulation Factor XIa can be determined using a relevant purified serine protease, and an appropriate synthetic substrate. The rate of hydrolysis of the chromogenic or fluorogenic substrate by the relevant serine protease was measured both in the absence and presence of compounds of the present invention. Assays were conducted at rt or at 37° C. […] A decrease in the rate of fluorescence change in the presence of inhibitor is indicative of enzyme inhibition. Such methods are known to one skilled in the art. […] Times required to achieve equilibration between enzyme and inhibitor were determined in control experiments. Initial velocities of product formation in the absence (Vo) or presence of inhibitor (Vi) were measured. Assuming competitive inhibition, and that unity is negligible compared Km/[S], [I]/e, and [I]/e (where [S], [I], and e respectively represent the total concentrations, of substrate, inhibitor and enzyme), the equilibrium constant (Ki) for dissociation of the inhibitor from the enzyme can be obtained from the dependence of Vo/Vi on [I] shown in the following equation.
Sequence (P03951 19-387 limits assumed): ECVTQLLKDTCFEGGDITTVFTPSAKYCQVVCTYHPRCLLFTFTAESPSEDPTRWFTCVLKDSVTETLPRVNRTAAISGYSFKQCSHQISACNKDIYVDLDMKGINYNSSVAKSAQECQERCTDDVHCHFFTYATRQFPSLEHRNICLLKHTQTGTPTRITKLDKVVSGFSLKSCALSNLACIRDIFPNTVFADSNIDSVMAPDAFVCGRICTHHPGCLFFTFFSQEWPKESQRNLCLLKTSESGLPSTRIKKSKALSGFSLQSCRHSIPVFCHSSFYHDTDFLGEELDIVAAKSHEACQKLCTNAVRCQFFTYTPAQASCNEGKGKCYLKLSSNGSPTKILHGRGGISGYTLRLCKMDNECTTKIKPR
Sequence (P03951 388-625 limits assumed): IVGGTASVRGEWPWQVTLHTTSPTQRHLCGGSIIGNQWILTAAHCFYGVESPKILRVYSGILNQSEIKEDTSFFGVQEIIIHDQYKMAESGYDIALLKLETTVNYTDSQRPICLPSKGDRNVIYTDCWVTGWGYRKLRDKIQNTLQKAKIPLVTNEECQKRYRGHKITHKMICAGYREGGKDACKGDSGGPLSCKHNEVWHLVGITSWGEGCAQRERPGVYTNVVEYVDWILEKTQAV

SMILES	Ki [nM]
COC(=O)Nc1ccc2c(c1)NC(=O)CCCCC(c1ccc(-c3cc(Cl)ccc3-n3cc(C(F)(F)F)cn3)cn1)c1cccc-2c1 (stereo unspecified)	708
COC(=O)Nc1ccc2c(c1)NC(=O)CCCCC(c1ccc(-c3cc(Cl)ccc3-c3cnn(C(F)F)c3)cn1)c1cccc-2c1 (stereo unspecified)	640
COC(=O)Nc1ccc2c(c1)NC(=O)CCCCC(c1ccc(-c3c(-n4cnnn4)ccc(Cl)c3F)cn1)c1cccc-2c1 (stereo unspecified)	0.24
COC(=O)Nc1ccc2c(c1)NC(=O)CCCCC(c1ccc(-c3cc(Cl)ccc3OC(F)(F)F)cn1)c1cccc-2c1 (stereo unspecified)	399
COC(=O)Nc1ccc2c(c1)NC(=O)CCCCC(c1ccc(-c3cc(Cl)ccc3-n3cc(C(F)(F)F)nn3)cn1)c1cccc-2c1 (stereo unspecified)	18.3
COC(=O)Nc1ccc2c(c1)NC(=O)CCCCC(c1ccc(-c3cc(F)ccc3-n3cnnn3)cn1)c1cccc-2c1 (stereo unspecified)	7
COC(=O)Nc1ccc2c(c1)NC(=O)CCCCC(c1ccc(-c3cc(Cl)ccc3-n3cc(C(F)F)nn3)cn1)c1cccc-2c1 (stereo unspecified)	9.2
COC(=O)Nc1ccc2c(c1)NC(=O)CCCCC(c1ccc(-c3cc(Cl)ccc3-n3cc(C4CC4)nn3)cn1)c1cccc-2c1 (stereo unspecified)	137
COC(=O)Nc1ccc2c(c1)NC(=O)CCCCC(c1ccc(-c3c(-n4cc(C(F)(F)F)nn4)ccc(Cl)c3F)cn1)c1cccc-2c1 (stereo unspecified)	2.02
COC(=O)Nc1ccc2c(c1)NC(=O)CCCCC(c1ccc(-c3cc(Cl)ccc3-n3cc(C#N)cn3)cn1)c1cccc-2c1 (stereo unspecified)	211
COC(=O)Nc1ccc2c(c1)NC(=O)CCCCC(c1ccc(-c3cc(Cl)ccc3-c3cnco3)cn1)c1cccc-2c1 (stereo unspecified)	259
COC(=O)Nc1ccc2c(c1)NC(=O)CCCCC(c1ccc(-c3cc(Cl)ccc3OC(F)F)cn1)c1cccc-2c1 (stereo unspecified)	181
COC(=O)Nc1ccc2c(c1)NC(=O)CCCCC(c1ccc(-c3cc(Cl)ccc3-n3cc(Cl)nn3)cn1)c1cccc-2c1 (stereo unspecified)	12
COC(=O)Nc1ccc2c(c1)NC(=O)CCCCC(c1ccc(-c3cc(Cl)ccc3C(F)(F)F)cn1)c1cccc-2c1 (stereo unspecified)	> 875
COC(=O)Nc1ccc2c(c1)NC(=O)CCCCC(c1ccc(-c3c(F)cccc3OC(F)F)cn1)c1cccc-2c1 (stereo unspecified)	> 875
COC(=O)Nc1ccc2c(c1)NC(=O)CCCCC(c1ccc(-c3cc(Cl)ccc3C#N)cn1)c1cccc-2c1 (stereo unspecified)	41
